Source: patent US8450362B2, “Amidine-containing compounds useful as muscarinic receptor antagonists” (Theravance, Inc., priority 2007, dated 2013)

Experiments:
[1] = system: MCh bronchoconstrictor response; test: Rat Einthoven assay (bronchoprotection, inhaled dosing); assay type: in vivo; details: inhalation; for ID50 (bronchoprotection): 1.5 hrs post-dose
Experimental: All test compounds are diluted in sterile water and are dosed via the inhalation route (IH). The rats (Sprague-Dawley, male, 250-350 g) are exposed to the aerosol generated from an LC Star Nebulizer Set and driven by a mixture of gases (5% CO2/95% atmospheric air). Each test compound solution is nebulized over a 10 minute time period in a pie shaped dosing chamber capable of holding six rats. At predetermined time points after inhalation of compound, the Einthoven assay is performed.
Thirty minutes prior to the start of pulmonary evaluation, the animals are anesthetized with inactin (thiobutabarbital, 120 mg/kg IP). The jugular vein is catheterized with saline filled polyethylene catheters (PE-50) and used to infuse MCh. The trachea is then dissected and cannulated with a 14G needle and used for rat ventilation during pulmonary evaluation. Once surgery is complete, rats are ventilated using a piston respirator set at a stroke volume of 1 ml/100 g body weight but not exceeding 2.5 ml volume, and at a rate of 90 strokes per minute.
The changes in pressure that occur with each breath are measured. Baseline values are collected for at least 2.5 minutes then rats are challenged non-cumulatively with 2-fold incremental increases of the bronchoconstrictor MCh (5, 10, 20, 40 and 80 μg/ml). The MCh is infused for 2.5 minutes from a syringe pump at a rate of 2 mL/kg/min. The animals are euthanized upon completion of the studies.
Changes in ventilation pressure (cm H2O) in treated animals are expressed as % inhibition of MCh response relative to control animals.
Standard muscarinic antagonists were evaluated in the rat Einthoven assay 1.5 hrs post-dose.
Standards tiotropium and ipratropium were also evaluated 24 hr and/or 6 hr post-dose in the rat Einthoven assay. […] The observed loss of activity at this time point (6 hr) is consistent with its relatively short duration of action in the clinic.

[2] = system: pilocarpine-induced salivation; test: Rat antisialagogue assay; assay type: in vivo; details: evaluated at 1, 6 and 24 hr post-dose
Experimental: Rats (Sprague-Dawley, male, 250-350 g) are dosed, anesthetized and cannulated as described for Assay 3. At predetermined time points and after surgery, animals are placed on their dorsal side at a 20° incline with their head in a downward slope. A pre-weighed gauze pad is inserted in the animal's mouth and the muscarinic agonist pilocarpine (PILO) (3 mg/kg, iv.) is administered. Saliva produced during 10 minutes post-PILO is measured gravimetrically by determining the weight of the gauze pad before and after PILO. Antisialagogue effects are expressed as % inhibition of salivation relative to control animals.
The rat antisialagogue assay was developed to assess systemic exposure and calculate the lung selectivity index (LSI) of test compounds. The standard, tiotropium, was evaluated in this model at 1, 6, and 24 hr post-dose. […] This finding is consistent with the peak effects observed in the Einthoven assay. This model is a modified version of the procedure described in Rechter, “Estimation of anticholinergic drug effects in mice by antagonism against pilocarpine-induced salivation” Ata Pharmacol Toxicol 24:243-254 […]. The mean weight of saliva in vehicle-treated animals, at each pre-treatment time, is calculated and used to compute % inhibition of salivation, at the corresponding pre-treatment time, at each dose. […]

Row | Compound | ID50 (bronchoprotection) [1] [µg/mL] | fold less potent 6-hr post-dose compared to 1.5 hr potency ([1]; 10 and 30 μg/ml, 6 hr vs 1.5 hr) | 6 hr versus 24 hr potency values [1] | fold more potent at 6 hr and 24 hr compared to 1.5 hr potency ([1]; 6 hr and 24 hr vs 1.5 hr) | time of peak bronchoprotection post-dose ([1]; slow onset of effect) [h] | time post dose of greatest potency at inhibiting pilocarpine-induced salivation [2] [h]
1 | C[N+]1(C)CCC(OC(=O)C(O)(c2ccccc2)C2CCCC2)C1 (centres unmarked) [glycopyrrolate] | 15 |  |  |  |  | 
2 | CC(C)[N+]1(C)[C@@H]2CC[C@H]1C[C@@H](OC(=O)C(CO)c1ccccc1)C2 (some centres unmarked) [ipratropium] | 4.4 | about 3 fold |  |  |  | 
3 | C[N+]1(C)[C@@H]2C[C@@H](OC(=O)C(O)(c3cccs3)c3cccs3)C[C@H]1[C@@H]1O[C@@H]12 [tiotropium] | 6 |  | not significantly different from each other | about 2 fold | 6 | 6
